Test results as given in ChEMBL document CHEMBL1129930, “Analogues of methotrexate in rheumatoid arthritis. 2. Effects of 5-deazaaminopterin, 5,10-dideazaaminopterin, and analogues on type II collagen-induced arthritis in mice” (J Med Chem, 1997).

How the values were obtained:
[1] = Concentration required to inhibit the growth of chang liver cells.; format: functional; conditions: Homo sapiens
Mus musculus [2] = test: Tested for antiinflammatory activity on mouse type II collagen arthritis as Paw swelling of all animals in each group on day 37 at intraperitoneal dose of 6 mg/kg; format: functional
Mus musculus [3] = test: Incidence of disease (mouse type II collagen) was scored as the percentage of animals within each experimental group that exhibited joint or limb inflammation on day 30 at intraperitoneal dose of 6 mg/kg; format: functional
Mus musculus [4] = test: Incidence of disease (mouse type II collagen) was scored as the percentage of animals within each experimental group that exhibited joint or limb inflammation on day 44 at intraperitoneal dose of 6 mg/kg; format: functional
Mus musculus [5] = test: Tested for antiinflammatory activity on mouse type II collagen arthritis as Paw swelling of all animals in each group on day 30 at intraperitoneal dose of 6 mg/kg; format: functional
Mus musculus [6] = test: Incidence of disease (mouse type II collagen) was scored as the percentage of animals within each experimental group that exhibited joint or limb inflammation on day 37 at intraperitoneal dose of 6 mg/kg; format: functional
Mus musculus [7] = test: Incidence of disease (mouse type II collagen) was scored as the percentage of animals within each experimental group that exhibited joint or limb inflammation on day 44 at intraperitoneal dose of 1.5 mg/kg; format: functional
Mus musculus [8] = test: Tested for antiinflammatory activity on mouse type II collagen arthritis as Paw swelling of all animals in each group on day 44 at intraperitoneal dose of 3 mg/kg; format: functional
Mus musculus [9] = test: Incidence of disease (mouse type II collagen) was scored as the percentage of animals within each experimental group that exhibited joint or limb inflammation on day 23 at intraperitoneal dose of 3 mg/kg; format: functional
Mus musculus [10] = test: Tested for antiinflammatory activity on mouse type II collagen arthritis as Paw swelling of all animals in each group on day 44 at intraperitoneal dose of 1.5 mg/kg; format: functional
L1210 = test: Concentration required to inhibit the growth of L1210 cells.; format: functional, cell-based; conditions: Mus musculus
Mus musculus [11] = test: Tested for antiinflammatory activity on mouse type II collagen arthritis as Paw swelling of all animals in each group on day 37 at intraperitoneal dose of 1.5 mg/kg; format: functional
Mus musculus [12] = test: Incidence of disease (mouse type II collagen) was scored as the percentage of animals within each experimental group that exhibited joint or limb inflammation on day 44 at intraperitoneal dose of 3 mg/kg; format: functional
Mus musculus [13] = test: Incidence of disease (mouse type II collagen) was scored as the percentage of animals within each experimental group that exhibited joint or limb inflammation on day 37 at intraperitoneal dose of 3 mg/kg; format: functional
Mus musculus [14] = test: Tested for antiinflammatory activity on mouse type II collagen arthritis as Paw swelling of all animals in each group on day 30 at intraperitoneal dose of 3 mg/kg; format: functional
Mus musculus [15] = test: Incidence of disease (mouse type II collagen) was scored as the percentage of animals within each experimental group that exhibited joint or limb inflammation on day 30 at intraperitoneal dose of 1.5 mg/kg; format: functional
Mus musculus [16] = test: Incidence of disease (mouse type II collagen) was scored as the percentage of animals within each experimental group that exhibited joint or limb inflammation on day 37 at intraperitoneal dose of 1.5 mg/kg; format: functional
Mus musculus [17] = test: Tested for antiinflammatory activity on mouse type II collagen arthritis as Paw swelling of all animals in each group on day 23 at intraperitoneal dose of 1.5 mg/kg; format: functional
Mus musculus [18] = test: Tested for antiinflammatory activity on mouse type II collagen arthritis as Paw swelling of all animals in each group on day 44 at intraperitoneal dose of 6 mg/kg; format: functional
Mus musculus [19] = test: Tested for antiinflammatory activity on mouse type II collagen arthritis as Paw swelling of all animals in each group on day 30 at intraperitoneal dose of 1.5 mg/kg; format: functional
Mus musculus [20] = test: Tested for antiinflammatory activity on mouse type II collagen arthritis as Paw swelling of all animals in each group on day 23 at intraperitoneal dose of 3 mg/kg; format: functional
Mus musculus [21] = test: Incidence of disease (mouse type II collagen) was scored as the percentage of animals within each experimental group that exhibited joint or limb inflammation on day 23 at intraperitoneal dose of 1.5 mg/kg; format: functional
Mus musculus [22] = test: Tested for antiinflammatory activity on mouse type II collagen arthritis as Paw swelling of all animals in each group on day 23 at intraperitoneal dose of 6 mg/kg; format: functional
Mus musculus [23] = test: Incidence of disease (mouse type II collagen) was scored as the percentage of animals within each experimental group that exhibited joint or limb inflammation on day 30 at intraperitoneal dose of 3 mg/kg; format: functional
Mus musculus [24] = test: Incidence of disease (mouse type II collagen) was scored as the percentage of animals within each experimental group that exhibited joint or limb inflammation on day 23 at intraperitoneal dose of 6 mg/kg; format: functional
Mus musculus [25] = test: Tested for antiinflammatory activity on mouse type II collagen arthritis as Paw swelling of all animals in each group on day 37 at intraperitoneal dose of 3 mg/kg; format: functional

Row | Compound | IC50 [1] | Animals (Mus musculus [7]) | Paw swelling (Mus musculus [8]) | Animals (Mus musculus [9]) | Paw swelling (Mus musculus [10]) | IC50 (L1210) | Paw swelling (Mus musculus [11]) | Animals (Mus musculus [12]) | Animals (Mus musculus [13]) | Paw swelling (Mus musculus [14]) | Animals (Mus musculus [15]) | Animals (Mus musculus [16]) | Paw swelling (Mus musculus [19]) | Paw swelling (Mus musculus [20]) | Animals (Mus musculus [21]) | Animals (Mus musculus [23]) | other results
1 | C#CCN(Cc1cnc2nc(N)nc(N)c2c1C)c1ccc(C(=O)NC(CCC(=O)O)C(=O)O)cc1 (configuration not stated) | 593 nM | 62% | 2.38 mm | 0% | 2.37 mm | 1.6 nM | 2.33 mm | 62% | 50% | 2.27 mm | 25% | 50% | 2.31 mm | 2.12 mm | 0% | 25% | Paw swelling (Mus musculus [2]): 2.32 mm; Animals (Mus musculus [3]): 25%; Animals (Mus musculus [4]): 62%; Paw swelling (Mus musculus [5]): 2.21 mm; Animals (Mus musculus [6]): 62%; Paw swelling (Mus musculus [17]): 2.16 mm; Paw swelling (Mus musculus [18]): 2.46 mm; Paw swelling (Mus musculus [22]): 2.23 mm; Animals (Mus musculus [24]): 12%
2 | Cc1c(CN(C)c2ccc(C(=O)NC(CCC(=O)O)C(=O)O)cc2)cnc2nc(N)nc(N)c12 (configuration not stated) | 78 nM | 62% | 2.48 mm | 0% | 2.44 mm | 1.3 nM | 2.42 mm | 100% | 50% | 2.26 mm | 12% | 50% | 2.26 mm | 2.1 mm | 0% | 50% | Paw swelling (Mus musculus [25]): 2.47 mm
